Results as given in patent US9573978B2, “Cyclosporin derivatives for the treatment and prevention of a viral infection” (priority 2010, dated 2017).
Like-named read-outs stand apart in the source and are kept apart here. Starred links: 1 amine or outer side, 2 acyl side, 3 side chain; linkers in the order of their positions; H or OH if unused. Non-standard residues stand in square brackets, D forms with d. Residues, ends and D or L forms follow the SMILES beside them. ξ: configuration not given here. NMe(dihydroBmt) = CCCC[C@@H](C)[C@@H](O)[C@H](NC)C(=O)O; MeBmt = C/C=C/C[C@@H](C)[C@@H](O)[C@H](NC)C(=O)O; X2 = CN([C@H](SCCCN1CCOCC1)C(=O)[*:2])[*:1]; NMeLeu(4-OMe) = CN[C@@H](CC(C)(C)OC)C(=O)O; X4 = CCN(CC)CCS[C@@H](C(=O)[*:2])N(C)[*:1]; X1 = CCN(CC)CCS[C@H](C(=O)[*:2])N(C)[*:1]; X5 = CC=CCC(C)C(O)C(C(=O)[*:2])N(C)[*:1]; X7 = C=CCOC(C)(C)CC(C(=O)[*:2])N(C)[*:1]; X6 = CN(C(SCCCN1CCOCC1)C(=O)[*:2])[*:1]; NMeIle(3ξ) = CCC(C)[C@H](NC)C(=O)O; NMeL = CN[CH](CC(C)C)C(=O)O; NMeV = CN[CH](C(=O)O)C(C)C; Abu = CC[CH](N)C(=O)O

Tested on: HCV replicon in Huh7 human hepatoma cell line ET (luc-ubi-neo/ET)
Test: HCV subgenomic replicon assay, luciferase end point, cell line ET (luc-ubi-neo/ET)
Assay type: cell-based, Hepatitis C virus
Description: The anti-HCV activity of cyclosporine derivatives were evaluated in the HCV subgenomic replicon assay. The assay use the cell line ET (luc-ubi-neo/ET), which is a Huh7 human hepatoma cell line harboring an HCV replicon with a stable luciferase (Luc) reporter. HCV RNA replication was assessed by quantifying HCV replicon-derived luciferase activity. The antiviral activity of cyclosporine analogs were evaluated after drug treatment, the EC 50 and EC 90 were determined in subsequent assessments by using the luciferase end point (Krieger, N., et al., 2001, J. Virol. 75, 4614-4624; Pietschmann, T., et al., 2002, J. Virol. 76, 4008-4021; each of which is incorporated herein by reference).

[1] = Hepatitis C virus, Huh-7, read-out: Antiviral activity IC50
[2] = HCV replicon-derived luciferase activity, read-out: Antiviral activity IC50

Compound | IC50 [1] [nM] | IC50 [2] [nM]
C/C=C/C[C@@H](C)[C@@H](O)[C@H]1C(=O)N[C@@H](CC)C(=O)N(C)[C@H](SCCCN2CCOCC2)C(=O)N(C)[C@@H](CC(C)(C)O)C(=O)N[C@@H](C(C)C)C(=O)N(C)[C@@H](CC(C)C)C(=O)N[C@@H](C)C(=O)N[C@H](C)C(=O)N(C)[C@@H](CC(C)C)C(=O)N(C)[C@@H](CC(C)C)C(=O)N(C)[C@@H](C(C)C)C(=O)N1C [Example 1, [(R)-3-(N-Morphlino)propylthio-Sar]-3-[(γ-Hydroxy)-NMeLeu]-4-cyclosporin] | 40 | –
[(S)-2-(N,N-Diethylamino)ethylthio-Sar]-3-[NMeIle]-4-cyclosporin | – | 1870
C/C=C/C[C@@H](C)[C@@H](O)[C@H]1C(=O)N[C@@H](CC)C(=O)N(C)[C@@H](SCCN(CC)CC)C(=O)N(C)[C@@H](C(C)C)C(=O)N[C@@H](C(C)C)C(=O)N(C)[C@@H](CC(C)C)C(=O)N[C@@H](C)C(=O)N[C@H](C)C(=O)N(C)[C@@H](CC(C)C)C(=O)N(C)[C@@H](CC(C)C)C(=O)N(C)[C@@H](C(C)C)C(=O)N1C [[(S)-2-(N,N-Diethylamino)ethylthio-Sar]-3-[NMeVal]-4-cyclosporin] (cyclo(A[dA][NMeL][NMeL][NMeV][MeBmt][Abu][X4][NMeV]V[NMeL])) | – | 3660
C/C=C/C[C@@H](C)[C@@H](O)[C@H]1C(=O)N[C@@H](CC)C(=O)N(C)[C@H](SCCN(CC)CC)C(=O)N(C)[C@@H](C(C)CC)C(=O)N[C@@H](C(C)C)C(=O)N(C)[C@@H](CC(C)C)C(=O)N[C@@H](C)C(=O)N[C@H](C)C(=O)N(C)[C@@H](CC(C)C)C(=O)N(C)[C@@H](CC(C)C)C(=O)N(C)[C@@H](C(C)C)C(=O)N1C (stereo partly drawn) [[(R)-2-(N,N-Diethylamino)ethylthio-Sar]-3-[NMeIle]-4-cyclosporin] (cyclo(A[dA][NMeL][NMeL][NMeV][MeBmt][Abu][X1][NMeIle(3ξ)]V[NMeL])) | 40 | –
C/C=C/C[C@@H](C)[C@@H](O)[C@H]1C(=O)N[C@@H](CC)C(=O)N(C)[C@H](SCCCN(CC)CC)C(=O)N(C)[C@@H](CC(C)(C)O)C(=O)N[C@@H](C(C)C)C(=O)N(C)[C@@H](CC(C)C)C(=O)N[C@@H](C)C(=O)N[C@H](C)C(=O)N(C)[C@@H](CC(C)C)C(=O)N(C)[C@@H](CC(C)C)C(=O)N(C)[C@@H](C(C)C)C(=O)N1C [Example 2, [(R)-3-(N,N-Diethylamino)propylthio-Sar]-3-[(γ-Hydroxy)-NMeLeu]-4-cyclosporin] | 70 | –
C/C=C/C[C@@H](C)[C@@H](O)[C@H]1C(=O)N[C@@H](CC)C(=O)N(C)CC(=O)N(C)[C@@H]([C@@H](C)CC)C(=O)N[C@@H](C(C)C)C(=O)N(C)[C@@H](CC(C)C)C(=O)N[C@@H](C)C(=O)N[C@H](C)C(=O)N(C)[C@@H](CC(C)C)C(=O)N(C)[C@@H](CC(C)C)C(=O)N(C)[C@@H](C(C)C)C(=O)N1C [SDZ-NIM-811, N-MeIle-4-Cyclosporin] | 150 | –
C=CCOC(C)(C)CC1C(=O)NC(C(C)C)C(=O)N(C)C(CC(C)C)C(=O)NC(C)C(=O)NC(C)C(=O)N(C)C(CC(C)C)C(=O)N(C)C(CC(C)C)C(=O)N(C)C(C(C)C)C(=O)N(C)C(C(O)C(C)CC=CC)C(=O)NC(CC)C(=O)N(C)C(SCCCN2CCOCC2)C(=O)N1C [Example 26, [(R)-3-(N-Morphlino)propylthio-Sar]-3-[(γ-Allyloxy)-NMeLeu]-4-cyclosporin] (cyclo([X5][Abu][X6][X7]V[NMeL]AA[NMeL][NMeL][NMeV]); configuration not given here) | – | 80
CCCC[C@@H](C)[C@@H](O)[C@H]1C(=O)N[C@@H](CC)C(=O)N(C)[C@H](SCCCN2CCOCC2)C(=O)N(C)[C@@H](CC(C)(C)OC)C(=O)N[C@@H](C(C)C)C(=O)N(C)[C@@H](CC(C)C)C(=O)N[C@@H](C)C(=O)N[C@H](C)C(=O)N(C)[C@@H](CC(C)C)C(=O)N(C)[C@@H](CC(C)C)C(=O)N(C)[C@@H](C(C)C)C(=O)N1C [Example 10, [(R)-3-(N-Morphlino)propylthio-Sar]-3-[(γ-Methoxy)-NMeLeu]-4-Dihydrocyclosporin] (cyclo(A[dA][NMeL][NMeL][NMeV][NMe(dihydroBmt)][Abu][X2][NMeLeu(4-OMe)]V[NMeL])) | 90 | –
C/C=C/C[C@@H](C)[C@@H](O)[C@H]1C(=O)N[C@@H](CC)C(=O)N(C)[C@H](SCCN(CC)CC)C(=O)N(C)[C@@H](C(C)C)C(=O)N[C@@H](C(C)C)C(=O)N(C)[C@@H](CC(C)C)C(=O)N[C@@H](C)C(=O)N[C@H](C)C(=O)N(C)[C@@H](CC(C)C)C(=O)N(C)[C@@H](CC(C)C)C(=O)N(C)[C@@H](C(C)C)C(=O)N1C [[(R)-2-(N,N-Diethylamino)ethylthio-Sar]-3-[NMeVal]-4-cyclosporin] (cyclo(A[dA][NMeL][NMeL][NMeV][MeBmt][Abu][X1][NMeV]V[NMeL])) | – | 40
C/C=C/C[C@@H](C)[C@@H](O)[C@H]1C(=O)N[C@@H](CC)C(=O)N(C)CC(=O)N(C)[C@@H](C(C)C)C(=O)N[C@@H](C(C)C)C(=O)N(C)[C@@H](CC(C)C)C(=O)N[C@@H](C)C(=O)N[C@H](C)C(=O)N(C)[C@@H](CC(C)C)C(=O)N(C)[C@@H](CC(C)C)C(=O)N(C)[C@@H](C(C)C)C(=O)N1C [SDZ-220-384, N-MeVal-4-Cyclosporin] | – | 170
C/C=C/C[C@@H](C)[C@@H](O)[C@H]1C(=O)N[C@@H](CC)C(=O)N(C)[C@H](SCCCN2CCOCC2)C(=O)N(C)[C@@H](CC(C)(C)OC)C(=O)N[C@@H](C(C)C)C(=O)N(C)[C@@H](CC(C)C)C(=O)N[C@@H](C)C(=O)N[C@H](C)C(=O)N(C)[C@@H](CC(C)C)C(=O)N(C)[C@@H](CC(C)C)C(=O)N(C)[C@@H](C(C)C)C(=O)N1C [Example 12, [(R)-3-(N-Morphlino)propylthio-Sar]-3-[(γ-Methoxy)-NMeLeu]-4-cyclosporin] | 60 | –
